Read-outs that look alike come from different tables or passages of the source.
Columns and labels:
ROCK2 = ROCK2 (Homo sapiens (Human), UniProt O75116); assay: ROCK2 kinase assay (IMAP fluorescence polarization); format: biochemical
Procedure: MRCKα, MRCKβ, ROCK1 and ROCK2 assays were performed using an IMAP fluorescence polarization assay format (Molecular Devices Inc.). 8-12 nM of each kinase (Life Technologies) was incubated for 60 min at room temperature with 100 nM FAM-S6-ribosomal protein derived peptide (synthesized by Alta Biosciences, University of Birmingham UK) in the presence of 1 μM ATP and 0.5 mM MgCl2 in 20 mM Tris buffer (pH 7.4) containing 0.01% Tween-20 and 1 mM DTT (MRCKα and β); or 1 μM ATP, 10 mM MgCl2 in 20 mM Tris buffer (pH 7.5) containing 0.25 mM EGTA 0.01% Triton X-100 and 1 mM DTT (ROCK1 and ROCK2). Typically, dose response analyses were performed over concentration ranges from 0.005-100 μM. Reactions were stopped by adding 2 assay volumes of 0.25% (v/v) IMAP binding reagent in 1×IMAP binding buffer A (Molecular Devices). After 30 min incubation to allow binding reagent to bind phosphorylated peptide, fluorescence polarization was measured on a Tecan Saphire^2 plate reader at excitation (470 nm) and emission (530 nm) wavelengths.

MRCKα = MRCKα (Homo sapiens (Human), UniProt Q5VT25); assay: MRCKα kinase assay (IMAP fluorescence polarization); format: biochemical
Source text: (§1) MRCKα, MRCKβ, ROCK1 and ROCK2 Kinase Assays

MRCKβ [1] = molecular target: T1, MRCKβ (Homo sapiens (Human), UniProt Q9Y5S2); assay: MRCKβ kinase assay (IMAP fluorescence polarization); format: biochemical
Source text: as §1

ROCK1 [2] = molecular target: T2, ROCK1 (Homo sapiens (Human), UniProt Q13464); assay: biochemical
Procedure: MRCKα, MRCKβ, ROCK1 and ROCK2 assays were performed using an IMAP fluorescence polarization assay format (Molecular Devices Inc.). […] Typically, dose response analyses were performed over concentration ranges from 0.005-100 μM. […] After 30 min incubation to allow binding reagent to bind phosphorylated peptide, fluorescence polarization was measured on a Tecan Saphire^2 plate reader at excitation (470 nm) and emission (530 nm) wavelengths.

MRCKβ [3] = molecular target: T1, MRCKβ; assay: MRCKβ cellular assay (pMLC T18/S19 immunoblot, MDA-MB-231 cells with doxycycline inducible kinase domain); format: cell-based
Procedure: (§2) MRCKβ, ROCK1 and ROCK2 Cellular Assays
(§3) MDA-MB-231 cells expressing doxycycline inducible ROCK1, ROCK2 or MRCKβ kinase domains were plated at 1.1×10^5 cells per well of a 12 well plate. After 24 hours, cells were treated with 1 μg/ml doxycycline for 18 hours to induce kinase domain expression and then tested over a suitable concentration range with compounds of the invention for 60 minutes. Cells were then washed with PBS and lysed with Tris-SDS lysis Buffer (50 mM Tris-HCl pH7.4, 0.5% (v/v) SDS, 1×PhosStop Inhibitors (04 906 837 001; Roche) and 1×Complete Protease Inhibitors (04 693 124 001; Roche)). Whole cell lysates were clarified by passing through QIAshredder spin columns, separated by SDS-PAGE, and quantitative immunoblotting performed using a LI-COR Odyssey IR scanner to determine pMLC (T18/S19) and α-Tubulin levels.

ROCK1 [4] = molecular target: T2, ROCK1; assay: ROCK1 cellular assay (pMLC T18/S19 immunoblot, MDA-MB-231 cells with doxycycline inducible kinase domain); format: cell-based
Procedure: as §2, §3

[5] = molecular target: kinase targets listed in tables 3 and 4 (Homo sapiens, UniProt Q9BXA7); assay: biochemical
[6] = molecular target: kinase targets listed in tables 3 and 4 (Homo sapiens, UniProt Q9Y5S2); assay: biochemical
[7] = molecular target: kinase targets listed in tables 3 and 4 (Homo sapiens, UniProt Q13464); assay: biochemical
[8] = 1 μM ATP, read-out: ROCK2 Average Ki
[9] = 1 μM ATP, read-out: MRCK-a Average Ki
[10] = 1 μM ATP, read-out: MRCK-B Average Ki
[11] = MDA-MB-231 cells, doxycycline inducible kinase domain, 60 minutes, pMLC (T18/S19), read-out: Cellular assay - MRCK-b inhibition MEAN
[12] = MDA-MB-231 cells, doxycycline inducible kinase domain, 60 minutes, pMLC (T18/S19), read-out: Cellular assay - ROCK1 inhibition MEAN

Sequence of MRCKα (Q5VT25 whole entry): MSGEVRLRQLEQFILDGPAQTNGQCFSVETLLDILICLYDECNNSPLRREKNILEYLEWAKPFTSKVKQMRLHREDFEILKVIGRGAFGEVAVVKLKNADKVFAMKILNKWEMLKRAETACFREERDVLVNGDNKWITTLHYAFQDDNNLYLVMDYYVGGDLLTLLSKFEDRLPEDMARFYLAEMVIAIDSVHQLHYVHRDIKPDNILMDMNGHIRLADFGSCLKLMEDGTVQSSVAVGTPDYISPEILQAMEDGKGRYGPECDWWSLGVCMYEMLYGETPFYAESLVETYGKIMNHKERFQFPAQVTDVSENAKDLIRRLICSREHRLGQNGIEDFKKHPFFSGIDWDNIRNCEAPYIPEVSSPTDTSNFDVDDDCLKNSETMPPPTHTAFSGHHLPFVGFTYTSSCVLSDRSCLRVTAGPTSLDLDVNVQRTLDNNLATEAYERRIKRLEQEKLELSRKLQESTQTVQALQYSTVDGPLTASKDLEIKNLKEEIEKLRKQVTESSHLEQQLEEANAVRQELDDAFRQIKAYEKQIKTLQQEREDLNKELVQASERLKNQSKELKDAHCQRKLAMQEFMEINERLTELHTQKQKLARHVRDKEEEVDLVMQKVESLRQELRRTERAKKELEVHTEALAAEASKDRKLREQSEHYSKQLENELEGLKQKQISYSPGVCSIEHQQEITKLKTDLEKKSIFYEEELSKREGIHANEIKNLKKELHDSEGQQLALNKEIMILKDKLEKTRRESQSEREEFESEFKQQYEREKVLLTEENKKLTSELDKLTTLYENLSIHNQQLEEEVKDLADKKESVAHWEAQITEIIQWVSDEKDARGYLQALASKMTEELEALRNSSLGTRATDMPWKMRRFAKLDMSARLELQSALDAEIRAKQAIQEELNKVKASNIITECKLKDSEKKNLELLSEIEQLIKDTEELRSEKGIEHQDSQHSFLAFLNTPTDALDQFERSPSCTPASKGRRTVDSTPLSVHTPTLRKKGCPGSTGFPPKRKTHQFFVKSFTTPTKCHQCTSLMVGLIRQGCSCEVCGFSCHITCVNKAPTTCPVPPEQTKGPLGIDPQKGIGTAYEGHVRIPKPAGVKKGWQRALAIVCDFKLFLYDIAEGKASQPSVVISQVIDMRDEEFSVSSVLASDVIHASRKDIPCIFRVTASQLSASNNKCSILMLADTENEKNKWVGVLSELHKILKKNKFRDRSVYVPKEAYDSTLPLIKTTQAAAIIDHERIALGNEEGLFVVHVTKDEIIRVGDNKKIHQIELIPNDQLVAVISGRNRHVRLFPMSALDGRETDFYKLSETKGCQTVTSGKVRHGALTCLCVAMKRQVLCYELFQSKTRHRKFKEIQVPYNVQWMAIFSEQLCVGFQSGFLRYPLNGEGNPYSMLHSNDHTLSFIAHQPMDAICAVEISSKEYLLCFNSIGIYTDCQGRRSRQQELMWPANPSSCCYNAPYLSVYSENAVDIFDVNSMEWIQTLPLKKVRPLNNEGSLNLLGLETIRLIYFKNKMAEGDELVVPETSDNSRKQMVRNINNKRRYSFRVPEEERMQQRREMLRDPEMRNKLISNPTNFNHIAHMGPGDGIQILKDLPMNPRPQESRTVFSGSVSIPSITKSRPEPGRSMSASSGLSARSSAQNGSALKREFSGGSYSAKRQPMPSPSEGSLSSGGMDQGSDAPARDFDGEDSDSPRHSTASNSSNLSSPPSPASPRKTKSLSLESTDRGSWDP
T2 sequence (Q13464 2-1354 limits assumed): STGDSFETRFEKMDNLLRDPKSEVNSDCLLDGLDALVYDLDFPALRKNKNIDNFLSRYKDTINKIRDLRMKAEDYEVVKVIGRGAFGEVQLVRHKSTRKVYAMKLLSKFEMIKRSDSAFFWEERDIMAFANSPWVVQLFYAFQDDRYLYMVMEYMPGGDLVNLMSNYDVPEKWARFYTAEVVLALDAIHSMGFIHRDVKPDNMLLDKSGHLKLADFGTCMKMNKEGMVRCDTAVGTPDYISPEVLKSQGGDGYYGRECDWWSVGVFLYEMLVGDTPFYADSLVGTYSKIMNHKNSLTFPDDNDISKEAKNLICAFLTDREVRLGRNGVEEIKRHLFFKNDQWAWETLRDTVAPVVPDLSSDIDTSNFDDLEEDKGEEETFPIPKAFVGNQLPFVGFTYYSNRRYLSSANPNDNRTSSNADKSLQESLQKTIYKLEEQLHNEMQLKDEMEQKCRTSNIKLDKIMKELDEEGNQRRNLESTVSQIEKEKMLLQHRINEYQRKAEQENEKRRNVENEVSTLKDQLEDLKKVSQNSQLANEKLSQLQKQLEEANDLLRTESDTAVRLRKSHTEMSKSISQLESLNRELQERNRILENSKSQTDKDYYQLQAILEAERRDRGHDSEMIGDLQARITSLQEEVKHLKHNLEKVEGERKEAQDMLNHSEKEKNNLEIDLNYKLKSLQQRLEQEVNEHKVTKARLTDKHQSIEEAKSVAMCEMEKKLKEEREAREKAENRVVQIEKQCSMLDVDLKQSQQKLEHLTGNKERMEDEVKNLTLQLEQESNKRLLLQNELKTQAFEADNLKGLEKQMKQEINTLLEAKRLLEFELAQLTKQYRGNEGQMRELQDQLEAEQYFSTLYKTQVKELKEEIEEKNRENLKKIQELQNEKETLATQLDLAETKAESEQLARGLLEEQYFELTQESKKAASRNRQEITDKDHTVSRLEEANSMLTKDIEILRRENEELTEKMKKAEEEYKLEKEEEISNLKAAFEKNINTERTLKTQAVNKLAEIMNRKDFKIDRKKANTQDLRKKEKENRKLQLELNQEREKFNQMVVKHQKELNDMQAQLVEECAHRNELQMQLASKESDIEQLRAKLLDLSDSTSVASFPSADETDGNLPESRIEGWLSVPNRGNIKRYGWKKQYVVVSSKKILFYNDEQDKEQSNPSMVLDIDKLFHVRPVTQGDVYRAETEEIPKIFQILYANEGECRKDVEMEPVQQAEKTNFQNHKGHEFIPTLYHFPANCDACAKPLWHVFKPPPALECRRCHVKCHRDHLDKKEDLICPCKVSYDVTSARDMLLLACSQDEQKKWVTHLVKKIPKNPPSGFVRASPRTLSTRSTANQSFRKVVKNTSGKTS
Sequence of ROCK2 (O75116 whole entry): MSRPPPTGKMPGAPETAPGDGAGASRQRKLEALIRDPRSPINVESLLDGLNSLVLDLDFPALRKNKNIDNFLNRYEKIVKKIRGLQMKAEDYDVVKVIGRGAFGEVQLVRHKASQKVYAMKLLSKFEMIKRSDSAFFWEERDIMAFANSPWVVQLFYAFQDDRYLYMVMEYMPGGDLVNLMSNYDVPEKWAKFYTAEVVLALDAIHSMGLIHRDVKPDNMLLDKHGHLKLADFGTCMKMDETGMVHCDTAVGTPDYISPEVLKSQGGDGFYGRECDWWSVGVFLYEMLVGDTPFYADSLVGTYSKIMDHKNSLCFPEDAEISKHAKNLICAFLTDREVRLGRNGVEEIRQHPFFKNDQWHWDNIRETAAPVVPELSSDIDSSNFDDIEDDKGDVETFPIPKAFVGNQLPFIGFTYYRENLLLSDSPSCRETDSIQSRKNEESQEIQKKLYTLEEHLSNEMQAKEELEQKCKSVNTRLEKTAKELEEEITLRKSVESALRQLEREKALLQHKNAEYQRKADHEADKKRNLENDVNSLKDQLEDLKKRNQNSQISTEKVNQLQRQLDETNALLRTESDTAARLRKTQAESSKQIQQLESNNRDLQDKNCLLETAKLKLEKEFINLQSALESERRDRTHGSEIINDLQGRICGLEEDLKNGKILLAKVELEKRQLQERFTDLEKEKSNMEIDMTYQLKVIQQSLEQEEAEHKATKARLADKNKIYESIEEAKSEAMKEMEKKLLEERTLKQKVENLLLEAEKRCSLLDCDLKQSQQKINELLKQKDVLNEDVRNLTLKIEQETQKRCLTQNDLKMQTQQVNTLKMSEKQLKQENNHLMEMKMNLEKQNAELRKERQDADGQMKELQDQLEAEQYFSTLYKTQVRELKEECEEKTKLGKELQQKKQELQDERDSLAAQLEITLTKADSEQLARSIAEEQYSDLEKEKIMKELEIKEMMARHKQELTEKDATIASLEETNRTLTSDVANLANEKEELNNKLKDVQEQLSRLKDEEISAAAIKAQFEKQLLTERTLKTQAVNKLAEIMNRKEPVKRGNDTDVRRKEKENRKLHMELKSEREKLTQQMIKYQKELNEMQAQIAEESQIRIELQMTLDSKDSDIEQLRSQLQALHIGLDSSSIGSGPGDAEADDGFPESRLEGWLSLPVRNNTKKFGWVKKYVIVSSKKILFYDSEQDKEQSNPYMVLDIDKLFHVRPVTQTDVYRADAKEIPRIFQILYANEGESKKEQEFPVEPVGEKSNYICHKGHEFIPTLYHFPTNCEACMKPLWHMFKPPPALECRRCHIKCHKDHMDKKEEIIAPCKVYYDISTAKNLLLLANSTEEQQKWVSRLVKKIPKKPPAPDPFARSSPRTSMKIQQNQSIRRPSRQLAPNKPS
Sequence of kinase targets listed in tables 3 and 4 (Homo sapiens, UniProt Q13464) (Q13464 2-1354 limits assumed): as the sequence (Q13464 2-1354 limits assumed) above
Sequence of kinase targets listed in tables 3 and 4 (Homo sapiens, UniProt Q9BXA7) (Q9BXA7 whole entry, looked up): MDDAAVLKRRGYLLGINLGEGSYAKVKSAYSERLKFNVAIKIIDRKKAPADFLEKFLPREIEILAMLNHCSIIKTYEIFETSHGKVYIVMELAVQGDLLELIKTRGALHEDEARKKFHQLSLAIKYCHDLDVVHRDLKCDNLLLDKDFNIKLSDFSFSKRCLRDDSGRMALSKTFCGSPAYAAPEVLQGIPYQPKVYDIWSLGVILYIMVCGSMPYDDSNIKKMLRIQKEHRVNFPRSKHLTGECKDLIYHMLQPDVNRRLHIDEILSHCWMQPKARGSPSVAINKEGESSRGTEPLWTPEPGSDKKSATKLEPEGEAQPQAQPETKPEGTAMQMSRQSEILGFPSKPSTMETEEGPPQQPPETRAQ

Ki (ROCK2; [8]) [nM]	Ki (MRCKα; [9]) [nM]	Ki (MRCKβ [1]; [10]) [nM]	Ki (ROCK1 [2]) [nM]	IC50 (MRCKβ [3]; [11]) [nM]	IC50 (ROCK1 [4]; [12]) [nM]	IC50 [5] [nM]	Ki [5] [nM]	IC50 [6] [nM]	Ki [6] [nM]	IC50 [7] [nM]	Ki [7] [nM]	Compound	Ki (ROCK2) [nM]	Ki (MRCKα) [nM]	Ki (MRCKβ [1]) [nM]	IC50 (MRCKβ [3]) [nM]	IC50 (ROCK1 [4]) [nM]
39.4	0.0122	0.0124	85.1	142	> 30000	–	–	–	–	–	–	c1cc(N2CCC[C@@]3(CCCCN3)C2)c2c(-c3ncsn3)c[nH]c2n1 [Example E116, 3-[4-[(6S)-1,8-diazaspiro[5.5]undecan-8-yl]-1H-pyrrolo[2,3-b]pyridin-3-yl]-1,2,4-thiadiazole]	–	–	–	–	–
4.73	0.0049	0.0147	23.8	13.3	15400	–	–	–	–	–	–	c1cc(N2CCC[C@@]3(CCCCN3)C2)c2c(-c3ccsn3)c[nH]c2n1 [Example E120, 3-[4-[(6S)-1,8-diazaspiro[5.5]undecan-8-yl]-1H-pyrrolo[2,3-b]pyridin-3-yl]isothiazole]	–	–	–	–	–
77.7	0.0284	0.585	196	101	> 30000	–	–	–	–	–	–	c1ncc(-c2c[nH]c3nccc(N4CCC[C@@]5(CCCCN5)C4)c23)cn1 [Example E122, (6S)-8-(3-pyrimidin-5-yl-1H-pyrrolo[2,3-b]pyridin-4-yl)-1,8-diazaspiro[5.5]undecane]	–	–	–	–	–
24.8	0.021	0.0601	107	318	> 30000	–	–	–	–	–	–	Cc1cnc(-c2c[nH]c3nccc(N4CC[C@@]5(CCCCN5)C4)c23)s1 [Example E131, 2-[4-[(5S)-2,6-diazaspiro[4.5]decan-2-yl]-1H-pyrrolo[2,3-b]pyridin-3-yl]-5-methyl-thiazole]	–	–	–	–	–
33600	0.216	0.203	104	1210	> 30000	–	–	–	–	–	–	Cc1csnc1-c1c[nH]c2nccc(N3CCCC4(CCCCN4)C3)c12 (stereo not drawn) [Example E142, 3-[4-(1,8-diazaspiro[5.5]undecan-8-yl)-1H-pyrrolo[2,3-b]pyridin-3-yl]-4-methyl-isothiazole]	–	–	–	–	–
100	0.0493	0.0539	203	150	> 30000	–	–	–	–	–	–	Cc1cnc(-c2c[nH]c3nccc(N4CCC[C@@]5(CCCCN5)C4)c23)s1 [Example E146, 2-[4-[(6S)-1,8-diazaspiro[5.5]undecan-8-yl]-1H-pyrrolo[2,3-b]pyridin-3-yl]-5-methyl-thiazole]	–	–	–	–	–
21.7	0.0332	0.0246	56.9	42.2	> 30000	4360	2070	6.9	1.15	406	251	c1csc(-c2c[nH]c3nccc(N4CCC[C@@]5(CCCCN5)C4)c23)n1 [Example E150, 2-[4-[(6S)-1,8-diazaspiro[5.5]undecan-8-yl]-1H-pyrrolo[2,3-b]pyridin-3-yl]thiazole]	–	–	–	–	–
29.9	0.101	0.0389	127	109	> 30000	–	–	–	–	–	–	CCN1CCCCC12CCCN(c1ccnc3[nH]cc(-c4nccs4)c13)C2 (stereo not drawn) [Example E209, 2-[4-(1-ethyl-1,8-diazaspiro[5.5]undecan-8-yl)-1H-pyrrolo[2,3-b]pyridin-3-yl]thiazole]	–	–	–	–	–
152	0.127	0.0634	50200	701	> 30000	–	–	–	–	–	–	CCN1CCCCC12CCCN(c1ccnc3[nH]cc(-c4ncc(C)s4)c13)C2 (stereo not drawn) [Example E210, 2-[4-(1-ethyl-1,8-diazaspiro[5.5]undecan-8-yl)-1H-pyrrolo[2,3-b]pyridin-3-yl]-5-methyl-thiazole]	–	–	–	–	–
7.57	0.185	0.184	29.9	426	14400	–	–	–	–	–	–	c1csc(-c2c[nH]c3nccc(O[C@@H]4CCCNC4)c23)n1 [Example E212, 2-[4-[[(3R)-3-piperidyl]oxy]-1H-pyrrolo[2,3-b]pyridin-3-yl]thiazole]	–	–	–	–	–
105	0.0945	0.0898	390	145	> 30000	–	–	–	–	–	–	c1cc(N2CCCC3(CCCCN3)C2)c2c(-c3ncsn3)c[nH]c2n1 (stereo not drawn) [Example E236, 3-[4-[1,8-diazaspiro[5.5]undecan-8-yl]-1H-pyrrolo[2,3-b]pyridin-3-yl]-1,2,4-thiadiazole]	–	–	–	–	–

Compound	Ki (ROCK2; [8]) [nM]	Ki (MRCKα; [9]) [nM]	Ki (MRCKβ [1]; [10]) [nM]	Ki (ROCK1 [2]) [nM]	IC50 (MRCKβ [3]; [11]) [nM]	IC50 (ROCK1 [4]; [12]) [nM]	IC50 [5] [nM]	Ki [5] [nM]	IC50 [6] [nM]	Ki [6] [nM]	IC50 [7] [nM]	Ki [7] [nM]	Ki (ROCK2) [nM]	Ki (MRCKα) [nM]	Ki (MRCKβ [1]) [nM]	IC50 (MRCKβ [3]) [nM]	IC50 (ROCK1 [4]) [nM]
c1csc(-c2c[nH]c3nccc(N4CC[C@@]5(CCCN5)C4)c23)n1 [Example E134, 2-[4-[(5S)-1,7-diazaspiro[4.4]nonan-7-yl]-1H-pyrrolo[2,3-b]pyridin-3-yl]thiazole]	–	–	–	111	–	–	–	–	–	–	–	–	30	0.19	0.303	787	> 30000
c1cc(N2CCC3(CCCN3)C2)c2c(-c3ccsn3)c[nH]c2n1 (stereo not drawn) [Example E136, 3-[4-(1,7-diazaspiro[4.4]nonan-7-yl)-1H-pyrrolo[2,3-b]pyridin-3-yl]isothiazole]	–	–	–	70.7	–	–	–	–	–	–	–	–	14.2	0.207	0.12	457	> 30000
